For series [1], the system named is Saccharomyces cerevisiae. Description: Antifungal activity against Saccharomyces cerevisiae. Format: functional, organism-based.
Series [2] has as its system Bacillus subtilis. The experiment in a line: Antibacterial activity against Bacillus subtilis. It counts as functional, organism-based.
Series [3] has as its system L929. Description: Cytotoxicity against mouse L929 cells after 5 days by MTT assay. Conditions: l929, 120 h. It counts as cell-based.
In series [4] the test system is Escherichia coli. Description: Antibacterial activity against Escherichia coli. Format: functional, organism-based.
Series [5] relates to Staphylococcus aureus. The experiment in a line: Antibacterial activity against Staphylococcus aureus. It counts as functional, organism-based.
Series [6] relates to Pseudomonas aeruginosa. Description: Antibacterial activity against Pseudomonas aeruginosa. Format: functional, organism-based.
For series [7], the system named is HL-60. The experiment in a line: Cytotoxicity against human HL60 cells after 5 days by MTT assay. It counts as functional, cell-based.
Series [8] deals with Galleria mellonella. The experiment in a line: Hemocyte cytotoxicity against Galleria mellonella larvae assessed as actin cytoskeletal ruffling at 100 ug/mL after 4 hrs. It counts as organism-based. The conditions noted are these: in vivo.
Series [9] concerns Enterococcus faecalis. The experiment in a line: Antibacterial activity against Enterococcus faecalis. Format: functional, organism-based.
Series [10] deals with Micrococcus luteus. Description: Antibacterial activity against Micrococcus luteus. Format: functional, organism-based.
Series [11] concerns Staphylococcus epidermidis. Description: Antibacterial activity against Staphylococcus epidermidis. Format: functional, organism-based.

Active and inactive are the calls of the source. No cut-off for these calls is given here.

Consider `CC(C)[C@H](NC(=O)Cc1ccccc1)C(=O)N[C@@H]1C(=O)N[C@H](Cc2ccccc2)C(=O)N2CCC[C@H]2C(=O)N[C@@H](C(C)C)C(=O)N[C@@H](C(C)C)C(=O)N[C@@H](C(C)C)C(=O)O[C@@H]1C` [XENTRIVALPEPTIDE A], for which the result in [1], in series [2], in series [4], in [5], in series [6] and in series [7] was inactive. In addition, the outcome in series [9], in [10] and in [11] was inactive. The Activity entry was “Non-toxic” in [3] and “Toxic” in series [8].

(Values after ChEMBL document CHEMBL2150979, “Xentrivalpeptides A-Q: depsipeptide diversification in Xenorhabdus” (J Nat Prod, 2012).)
